Data on one molecule can be found in publication PMC11042424, “Development of a First-in-Class RIPK1 Degrader to Enhance Antitumor Immunity” (Research Square, 2024).

Where two headings read alike, the source gives them in different places.

For this assay, the target named is T1, nLuc-RIPK1 fusion protein (Homo sapiens, UniProt Q13546).
T1 construct: expressed in transfected cells
T1 sequence (Q13546 1-671): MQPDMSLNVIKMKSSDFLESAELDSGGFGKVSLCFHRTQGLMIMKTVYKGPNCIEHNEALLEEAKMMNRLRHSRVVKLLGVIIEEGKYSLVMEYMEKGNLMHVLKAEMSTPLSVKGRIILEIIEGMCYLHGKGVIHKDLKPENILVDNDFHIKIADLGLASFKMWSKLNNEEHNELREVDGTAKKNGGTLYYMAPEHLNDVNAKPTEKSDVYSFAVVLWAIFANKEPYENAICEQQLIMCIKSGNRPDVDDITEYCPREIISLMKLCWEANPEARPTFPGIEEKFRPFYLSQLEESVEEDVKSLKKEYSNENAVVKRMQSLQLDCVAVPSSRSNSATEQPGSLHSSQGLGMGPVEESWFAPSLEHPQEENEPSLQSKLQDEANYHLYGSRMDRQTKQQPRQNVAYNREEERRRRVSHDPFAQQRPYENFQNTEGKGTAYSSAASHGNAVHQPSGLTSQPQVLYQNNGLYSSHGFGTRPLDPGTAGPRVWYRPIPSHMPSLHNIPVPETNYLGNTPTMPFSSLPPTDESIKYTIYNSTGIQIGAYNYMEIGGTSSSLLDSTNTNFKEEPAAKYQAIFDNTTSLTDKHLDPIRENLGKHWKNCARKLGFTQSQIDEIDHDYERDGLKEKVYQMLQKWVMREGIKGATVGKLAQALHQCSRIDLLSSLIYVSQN
Description: NanoBRET based in-cell RIPK1 target engagement. The protocol: Figure 2 LD4172, a RIPK1 PROTAC, induces potent and highly specific degradation of RIPK1 in a panel of cell lines. A, Chemical structures of RIPK1 PROTAC, LD4172, and its negative control, LD4172-NC. […] B, Quantification of RIPK1 levels in both Jurkat and B16F10 cells treated with LD4172 at indicated concentrations for 24 h, followed by Western blotting. C, DC50 and Dmax of LD4172 in various human and mouse cell lines. DC50, the drug concentration causing 50% protein degradation; Dmax, the maximum level of protein degradation. D, RIPK1 degradation kinetics induced by LD4172 treatment (1 μM) and resynthesis kinetics upon washout of LD4172 in both Jurkat and B16F10 cells. E, Quantification of D. The degradation half-life of RIPK1 induced by LD4172 (1 μM) is <2 h in Jurkat and B16F10 cells. […] F, NanoBRET based in-cell RIPK1 target engagement. HEK293 cells were transfected with a plasmid expressing nLuc-RIPK1 fusion protein for 24 h, followed by incubating with a RIPK1 NanoBRET tracer (500 nM) and different concentrations of LD4172 and LD4172-NC (n=3). G, Time-resolved fluorescence resonance energy transfer (TR-FRET) based biochemical binding assay for RIPK1. GST-tagged human RIPK1 (1 nM), Tb-labeled anti-GST antibody (0.3 nM), a RIPK1 TR-FRET tracer (350 nM) and different concentrations of LD4172 (n=3) were incubated for 2 hours, followed by TR-FRET measurements with an excitation wavelength at 340 nm and emission wavelengths at 495 and 520 nm. H, NanoBRET based in-cell assay for ternary complex formation. HEK293T cells were co-transfected with nLuc-RIPK1 and VHL-HaloTag plasmids for 24 h, followed by treatment with indicated concentrations of LD4172 or LD4172-NC (n=3). I, LD4172 induced RIPK1 degradation depends on ternary complex formation, neddylation and proteasome activity. Representative immunoblots of RIPK1 in both Jurkat and B16F10 cells. Cells were treated with RIPK1 inhibitor (T2I), VHL ligand, a neddylation inhibitor (MLN4924) or a proteasome inhibitor (Carfilzomib) at indicated concentrations for 4 hours, followed by LD4172 treatment for 4 hours. J, Proteome profiling of LD4172 induced protein degradation. MDA-MB- 231 cells were treated with LD4172 (200 nM) or LD4172-NC (200 nM) for 6 h (n=3). In total, ~10,000 proteins were quantified in the proteomics experiment. […] Blue dots represent kinases that are inhibited by the warhead of LD4172 but not degraded by LD4172.
To elucidate the formation of a binary complex during RIPK1 degradation, we developed a competitive NanoBRET (Nano-Bioluminescence Resonance Energy transfer)-based target engagement (TE) assay to quantify the binding between RIPK1 and LD4172 in cells[12],[13]. First, we developed a RIPK1 tracer by conjugating the LD4172 warhead T2I with a BODIPY-590 fluorescent dye, dubbed T2–590 (refer to Supporting Information for details). The dissociation equilibrium constant (Kd) between the tracer and RIPK1 was determined to be 0.5 μM by titrating the tracer in HEK293T cells expressing a nLuc-RIPK1 fusion protein. […] This is usually expected, considering that the large molecular weight of LD4172 may lead to poor cellular permeability.
For orientation: In BRET a luciferase serves as donor, and the signal depends on an acceptor being close.

Turning to `Cc1ncsc1-c1ccc([C@H](C)NC(=O)[C@@H]2C[C@@H](O)CN2C(=O)[C@@H](NC(=O)CCCCCCCCCCC(=O)NCCCn2cc(-c3ccc4c(c3)CCN4C(=O)Cc3cccc(OC(F)(F)F)c3)c3c(N)ncnc32)C(C)(C)C)cc1` [LD4172], for the setting “Cheng-Prusoff equation, read-out: apparent Ki between compound and RIPK1 in the cells”, the Ki was 1.9 µM. Also, the IC50 (in general, the concentration that gives 50% inhibition) was found to be 3750 nM (HEK293 cells, tracer 500 nM, n=3, read-out: IC50 (nM), Fig. 2F) and 3700 nM (tracer concentration at its Kd value, read-out: IC50, competition with tracer).
